Source: the CheMixHub viscosity set

Assay: xn = mol fraction of the nth substance listed

CCCCn1cc[n+](C)c1.F[P-](F)(F)(F)(F)F + NCCO
viscosity [mPa·s], 101 kPa
Details | x2 = 0.1185 | x2 = 0.2113 | x2 = 0.3052 | x2 = 0.4282 | x2 = 0.4918 | x2 = 0.6161 | x2 = 0.6984 | x2 = 0.8022 | x2 = 0.9028
293.15 K | – | 124.5 | 102.5 | 78.15 | 68.3 | 51.7 | 43.55 | 34.1 | 27.33
298.15 K | – | 92.28 | 76.44 | 58.74 | 51.63 | 39.18 | 33.39 | 26.29 | –
303.15 K | – | – | 57.84 | 44.92 | 39.41 | 30.4 | 25.89 | – | –
308.15 K | 67.48 | 54.83 | 44.08 | 34.54 | 30.31 | – | – | – | –
313.15 K | – | 42.41 | 34.89 | 27.36 | – | – | – | – | –
318.15 K | 42.44 | 33.84 | 28.14 | – | – | – | – | – | 9.08
323.15 K | 34.88 | 28.08 | – | – | – | – | – | 9.09 | 7.67

CCCCn1cc[n+](C)c1.F[P-](F)(F)(F)(F)F + O
298.15 K, 101 kPa
Details | viscosity [mPa·s]
x2 = 0.0518 | 198
x2 = 0.2146 | 92.5

C[N+](C)(C)CC(=O)O.[Cl-] + O
viscosity [mPa·s], 101 kPa
Details | 293.15 K | 298.15 K | 303.15 K | 308.15 K | 313.15 K | 318.15 K
x1 = 0.000448 | 1.007 | 0.8948 | 0.8017 | 0.7233 | 0.6568 | –
x1 = 0.000896 | 1.011 | 0.8992 | 0.8061 | 0.7276 | 0.661 | 0.6055
x1 = 0.00135 | 1.016 | 0.9038 | 0.8106 | 0.7321 | 0.6654 | –
x1 = 0.0018 | 1.02 | 0.9082 | 0.815 | 0.7365 | 0.6697 | 0.614
x1 = 0.002247 | 1.025 | 0.9126 | 0.8193 | 0.7408 | 0.674 | 0.6184
x1 = 0.002691 | 1.029 | 0.917 | 0.8237 | 0.7452 | 0.6783 | 0.6227
x1 = 0.003581 | 1.038 | 0.9259 | 0.8324 | 0.7539 | 0.687 | 0.6313
x1 = 0.004484 | 1.048 | 0.9348 | 0.8413 | 0.7627 | 0.6956 | 0.6401
x1 = 0.005363 | 1.056 | 0.9435 | 0.85 | 0.7712 | 0.7043 | 0.6486
x1 = 0.006268 | 1.066 | 0.9526 | 0.859 | 0.7799 | 0.713 | 0.6575
x1 = 0.007163 | 1.075 | 0.9616 | 0.8677 | 0.789 | 0.7217 | 0.6664

C[NH+](C)CCO.O=C([O-])CCCC(=O)O + O
101 kPa, x2 = 0.89
Details | viscosity [mPa·s]
298 K | 19.3
313 K | 11.8

[Cl-].[Cs+] + O
310.15 K, 101 kPa
Details | viscosity [mPa·s]
x1 = 0.000182 | 0.6996
x1 = 0.000907 | 0.7002
x1 = 0.001823 | 0.7061
x1 = 0.002695 | 0.7089
x1 = 0.003679 | 0.7129
x1 = 0.005197 | 0.719
x1 = 0.005988 | 0.7223

[Na+].[O-][Cl+2]([O-])[O-] + O
viscosity [mPa·s], 100 kPa
Details | x1 = 0.001798 | x1 = 0.003644 | x1 = 0.005393 | x1 = 0.007261 | x1 = 0.008945 | x1 = 0.01087 | x1 = 0.01261 | x1 = 0.01436 | x1 = 0.01582 | x1 = 0.01761
293.15 K | 0.996 | 1.007 | 1.017 | 1.025 | 1.033 | 1.042 | 1.05 | 1.058 | 1.067 | 1.076
298.15 K | 0.889 | 0.897 | 0.908 | 0.918 | 0.926 | 0.933 | 0.942 | 0.949 | 0.957 | 0.965
303.15 K | 0.801 | 0.809 | 0.817 | 0.827 | 0.835 | 0.841 | 0.849 | 0.857 | 0.865 | 0.873
308.15 K | 0.726 | 0.734 | 0.742 | 0.75 | 0.758 | 0.765 | 0.774 | 0.781 | 0.788 | 0.796
313.15 K | 0.663 | 0.67 | 0.678 | 0.685 | 0.693 | 0.7 | 0.708 | 0.716 | 0.723 | 0.729
318.15 K | 0.609 | 0.616 | 0.623 | 0.631 | 0.637 | 0.643 | 0.65 | 0.657 | 0.665 | 0.672

OCCCCCO + O=C1CCCN1
308.15 K, 101 kPa
Details | viscosity [mPa·s]
x1 = 0.479 | 21.15
x1 = 0.9392 | 54.65

CC(O)C(=O)O (stereo not given) + O=C(O)[C@@H]1CCCN1
Details | viscosity [mPa·s]
323.15 K, 100 kPa, x1 = 0.5 | 997.4

C[NH+](C)CCO.O=C([O-])CCCC(=O)O + O=S1(=O)CCCC1
101 kPa, x1 = 0.27
Details | viscosity [mPa·s]
303.15 K | 132.4
313.15 K | 81.7
323.15 K | 54.1

OC1CCCC1 + OCCO
viscosity [mPa·s], 100 kPa
Details | 293.15 K | 298.15 K | 303.15 K | 308.15 K | 313.15 K | 318.15 K
x1 = 0.0096 | 20.05 | 16.39 | 13.54 | 11.2 | 9.449 | 7.776
x1 = 0.0395 | 19.37 | 15.85 | 13.05 | 10.76 | 9.1 | 7.468
x1 = 0.0579 | 19.05 | 15.56 | 12.79 | 10.56 | 8.919 | 7.326
x1 = 0.0879 | 18.56 | 15.14 | 12.41 | 10.23 | 8.646 | 7.096
x1 = 0.1 | 18.37 | 14.97 | 12.3 | 10.1 | 8.562 | 7.014
x1 = 0.1962 | 17.2 | 13.96 | 11.39 | 9.382 | 7.926 | 6.505
x1 = 0.305 | 16.2 | 13.09 | 10.65 | 8.716 | 7.366 | 6.078
x1 = 0.3969 | 15.4 | 12.54 | 10.2 | 8.282 | 7.016 | 5.819
x1 = 0.4993 | 14.8 | 12.02 | 9.751 | 7.927 | 6.692 | 5.617
x1 = 0.5877 | 14.3 | 11.69 | 9.42 | 7.677 | 6.437 | 5.439
x1 = 0.6993 | 13.9 | 11.33 | 8.99 | 7.319 | 6.14 | 5.219
x1 = 0.797 | 13.56 | 11.01 | 8.69 | 7.01 | 5.861 | 5.05
x1 = 0.8977 | 13.15 | 10.62 | 8.345 | 6.737 | 5.625 | 4.89
